From patent US20200255884A1, “METHOD OF DETECTION OF DNA END(S) AND ITS USE” (INTODNA SP. Z O.O., priority 2017, published 2020)

Tested on: HeLa 21-4 cells
Assay: Combination of Procedures 1 and 2 for detection of DNA breaks in isolated chromatin of HeLa cells
Type: cell-based
Conditions: H2O2 4 mM, 30 minutes; control 6.0±0.1
Protocol: In this Example, HeLa 21-4 cells (obtained from P.R. Cook, University of Oxford) were seeded on 6-well plates and cultured for 48 hours in DMEM supplemented with 10% FBS until the culture reached 100% confluency (number of cells: 1.2×10^6 per 1 well). Next, cells were treated with the DNA damaging agent H2O2 which was added directly to the growth medium (final concentration: 4 mM). The cells were incubated at 37° C. for 30 minutes in the standard cell culture incubator with CO2 level control. The control, untreated cells and the damaged cells (H2O2) were then harvested using 0.5 ml trypsin and transferred to 1.5 ml Eppendorf tubes. Afterwards, trypsin was inactivated by adding 0.5 ml DMEM supplemented with 10% FBS. Subsequently, cells were spun down in the table top centrifuge (Eppendorf centrifuge, 5417 C, rotor: F45-30-11) (1700 rpm, 5 minutes, room temperature). The cell pellet was resuspended in 10 mM Tris (pH 8.8), a small aliquot of the cells in suspension (50 μl) was transferred to a new 1.5 ml Eppendorf tube and spun down in the table top centrifuge (1 minute, 14000 rpm, room temperature). The supernatant was discarded and the washing step in the same volume (50 μl) of 10 mM Tris (pH 8.8) was repeated (centrifugation in the table top centrifuge (1 minute, 14000 rpm, room temperature)). […]

SMILES: OO [H2O2]
- fluorescence intensity (mean grey value) of immobilized modified DNA: 8.9±0.1 a.u.
